Measured values: patent US12297207B2, “Maytansinoid derivatives, conjugates thereof, and methods of use” (priority 2015, dated 2025)

Tested on: T47D ductal carcinoma line (PRLR+)
Test: In vitro cytotoxicity assay (CellTiter-Glo), T47D cells
Format: cell-based, human
Conditions: Table 5, payloads only; for IC50: 5 days, read-out: T47D IC50; for T47D % kill: highest concentration tested
Method: The present example provides cytotoxicity assays for conjugates provided herein. To evaluate the ability of anti-PRLR antibodies conjugated with 63, 60, 77, and 78 to kill a PRLR expressing cell line, an in vitro cytotoxicity assay using a T47D ductal carcinoma line (ATCC, #HTB-133), which was previously determined to express >27,000 copies of human PRLR at its cell surface, was utilized.
For the assay, T47D cells were seeded onto white 96 well plates at 2,000 cells/well in media containing DMEM supplemented with 10% FBS, NEAA, and pencillin/streptomycinin (complete media). They were grown overnight at 37° C. in 5% CO2. To determine cell viability curves, the following day antibody drug conjugates, unconjugated antibodies, or free payloads were added to the cells at final serial dilutions ranging from 100 nM to 0.01 nM in complete medium and then incubated for an additional 5 days. Luciferase activity was detected after the addition of CellTiter-Glo™ reagent (Promega, G7571) to each well, which contains reagents to lyse the remaining viable cells to release their ATP, ATPase inhibitors to prevent degradation of the ATP, as well as luciferin and luciferase to catalyse the luminescent reaction. Viable cells prior to addition of CellTiter-Glo will be the only source of ATP since the dead cells in culture will not synthesis ATP and any of their released ATP will be destroyed via endogenous ATPases. Relative light units (RLUs) were measured on a Victor luminometer (PerkinElmer) and the results were determined using a four-parameter logistic equation over a 10-point response curve (GraphPad Prism). All measured values and calculated IC50 values were corrected for payload equivalents. All IC50 values are expressed in nM concentration and percent kill is reported for the highest concentration tested.

**Q.** Which IC50 does the source give for `COc1cc2cc(c1Cl)N(C)C(=O)C[C@H](OC(=O)[C@H](C)N(C)C(=O)c1ccc(N)cc1C)[C@]1(C)O[C@H]1[C@H](C)[C@@H]1C[C@@](O)(NC(=O)O1)[C@H](OC)/C=C/C=C(\C)C2` [Compound 51, Maytansin-N-methyl-L-alanine-(2-methyl-4-amino)benzamide] here?
**A.** 0.49 nM

**Q.** And the T47D % kill?
**A.** 72%

**Q.** `COc1cc2cc(c1Cl)N(C)C(=O)CC(OC(=O)C(C)N(C)C(=O)c1ccc(N)c(C)c1)C1(C)OC1C(C)C1CC(O)(NC(=O)O1)C(OC)C=CC=C(C)C2` [Compound 53, Maytansin-N-methyl-L-alanine-(3-methyl-4-amino)benzamide] was tested. Which IC50 did it give?
**A.** 0.2 nM

**Q.** And the T47D % kill?
**A.** 72%

**Q.** Which IC50 does the source give for `COc1cc2cc(c1Cl)N(C)C(=O)C[C@H](OC(=O)[C@H](C)N(C)C(=O)c1ccc(N)c3ncccc13)[C@]1(C)O[C@H]1[C@H](C)[C@@H]1C[C@@](O)(NC(=O)O1)[C@H](OC)/C=C/C=C(\C)C2` [Compound 55, Maytansin-N-methyl-L-alanine-(8-amino-5-carboxyquinoline)carboxamide] here?
**A.** 0.18 nM

**Q.** What about the T47D % kill of the same molecule?
**A.** 75%

**Q.** Which IC50 does the source give for `COc1ccc(N)cc1C(=O)N(C)[C@@H](C)C(=O)O[C@H]1CC(=O)N(C)c2cc(cc(OC)c2Cl)C/C(C)=C/C=C/[C@@H](OC)[C@@]2(O)C[C@H](OC(=O)N2)[C@@H](C)[C@@H]2O[C@@]12C` [Compound 65, Maytansin-N-methyl-L-alanine-N-(2-methoxy-5-amino)benzamide] here?
**A.** 1.13 nM

**Q.** And the T47D % kill?
**A.** 72%

**Q.** Which results are given for `COc1ccc(C(=O)N(C)[C@@H](C)C(=O)O[C@H]2CC(=O)N(C)c3cc(cc(OC)c3Cl)C/C(C)=C/C=C/[C@@H](OC)[C@@]3(O)C[C@H](OC(=O)N3)[C@@H](C)[C@@H]3O[C@@]23C)cc1N` [Compound 67, Maytansin-N-methyl-L-alanine-N-(3-amino-4-methoxy)benzamide]?
**A.** IC50: 0.19 nM; T47D % kill: 71%

**Q.** For `COc1cc2cc(c1Cl)N(C)C(=O)C[C@H](OC(=O)[C@H](C)N(C)C(=O)c1cc(N)cc(F)c1)[C@]1(C)O[C@H]1[C@H](C)[C@@H]1C[C@@](O)(NC(=O)O1)[C@H](OC)/C=C/C=C(\C)C2` [Compound 69, Maytansin-N-methyl-L-alanine-N-(3-amino-5-fluoro)benzamide], which IC50 is on record?
**A.** 0.39 nM

**Q.** And the T47D % kill?
**A.** 73%

**Q.** Which IC50 does the source give for `COc1cc2cc(c1Cl)N(C)C(=O)CC(OC(=O)C(C)N(C)C(=O)c1cc(N)ccc1F)C1(C)OC1C(C)C1CC(O)(NC(=O)O1)C(OC)C=CC=C(C)C2` [Compound 71, Maytansin-N-methyl-L-alanine-N-(2-fluoro-5-amino)benzamide] here?
**A.** 0.73 nM

**Q.** What about the T47D % kill of the same molecule?
**A.** 68%

**Q.** With `COc1cc2cc(c1Cl)N(C)C(=O)C[C@H](OC(=O)[C@H](C)N(C)C(=O)c1cccc(N)c1)[C@]1(C)O[C@H]1[C@H](C)[C@@H]1C[C@@](O)(NC(=O)O1)[C@H](OC)/C=C/C=C(\C)C2` [Compound 73, Maytansin-N-methyl-L-alanine-N-(3-amino)benzamide] as the molecule, how does the IC50 read?
**A.** 0.57 nM

**Q.** And the T47D % kill?
**A.** 73%
